Measured values: patent publication US20250114374A1, “BCL-2 INHIBITORS” (Newave Pharmaceutical Inc., priority 2021, published 2025)
Read-outs that look alike come from different tables or passages of the source.

Test system: RS4; 11 with G101V mutation
Test: In vitro anti-proliferation assay (ATPlite luminescence) in BCL-2-dependent ALL cell line RS4;11 with G101V mutation
Assay type: cell-based
Conditions: read-out: RS411-G101V IC50
Procedure, shortened: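 IC50 came from luminescent ATP quantification (ATPlite) following cell lysis. Compound dose ranges were applied for roughly 72 h to about 1×10^4 G101V-mutant RS4;11 cells per well, in 10% FBS medium.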

[1] = cellular anti-proliferative IC50, about 72 hours, medium with 10% FBS, ATPlite

IC50 (Homo sapiens, RS4-11, 72 h) [nM]	SMILES	IC50 [1] [nM]
–	CC(C)Oc1ccccc1[C@@H]1CN([C@@H]2CCOc3cc(F)c(F)cc32)CCN1C1CC2(CCN(c3ccc(C(=O)NS(=O)(=O)c4cc5c(c([N+](=O)[O-])c4)N[C@H](C4CCOCC4)CO5)c(N4c5cc6cc[nH]c6nc5O[C@H]5COCC[C@@H]54)c3)CC2)C1 [Example 211, 4-{2-[(2R)-4-[(4R)-6,7-difluoro-3,4-dihydro-2H-1-benzopyran-4-yl]-2-(2-isopropoxyphenyl)piperazin-1-yl]-7-azaspiro[3.5]nonan-7-yl}-2-[(3R,8S)-2,5-dioxa-9,15,17-triazatetracyclo[8.7.0.0^{3,8}.0^{12,16}]heptadeca-1(10),11,13,16-tetraen-9-yl]-N-[(3R)-5-nitro-3-(oxan-4-yl)-3,4-dihydro-2H-1,4-benzoxazin-7-ylsulfonyl]benzamide]	87.2
–	CC(C)Oc1ccccc1[C@@H]1CN([C@@H]2CCOc3c2ccc(F)c3F)CCN1C1CC2(CCN(c3ccc(C(=O)NS(=O)(=O)c4cc5c(c([N+](=O)[O-])c4)N[C@H](C4CCOCC4)CO5)c(N4c5cc6cc[nH]c6nc5O[C@H]5COCC[C@@H]54)c3)CC2)C1 [Example 212, 4-{2-[(2R)-4-[(4R)-7,8-difluoro-3,4-dihydro-2H-1-benzopyran-4-yl]-2-(2-isopropoxyphenyl)piperazin-1-yl]-7-azaspiro[3.5]nonan-7-yl}-2-[(3R,8S)-2,5-dioxa-9,15,17-triazatetracyclo[8.7.0.0^{3,8}.0^{12,16}]heptadeca-1(10),11,13,16-tetraen-9-yl]-N-[(3R)-5-nitro-3-(oxan-4-yl)-3,4-dihydro-2H-1,4-benzoxazin-7-ylsulfonyl]benzamide]	33.5
–	CC(C)Oc1ccccc1[C@@H]1CN([C@H]2CCOc3c2ccc(F)c3F)CCN1C1CC2(CCN(c3ccc(C(=O)NS(=O)(=O)c4cc5c(c([N+](=O)[O-])c4)N[C@H](C4CCOCC4)CO5)c(N4c5cc6cc[nH]c6nc5O[C@H]5COCC[C@@H]54)c3)CC2)C1 [Example 213, 4-{2-[(2R)-4-[(4S)-7,8-difluoro-3,4-dihydro-2H-1-benzopyran-4-yl]-2-(2-isopropoxyphenyl)piperazin-1-yl]-7-azaspiro[3.5]nonan-7-yl}-2-[(3R,8S)-2,5-dioxa-9,15,17-triazatetracyclo[8.7.0.0^{3,8}.0^{12,16}]heptadeca-1(10),11,13,16-tetraen-9-yl]-N-[(3R)-5-nitro-3-(oxan-4-yl)-3,4-dihydro-2H-1,4-benzoxazin-7-ylsulfonyl]benzamide]	23.8
385	CC(C)Oc1ccccc1[C@@H]1CN([C@H]2CCOc3c(F)cc(F)cc32)CCN1C1CC2(CCN(c3ccc(C(=O)NS(=O)(=O)c4cc5c(c([N+](=O)[O-])c4)N[C@H](C4CCOCC4)CO5)c(N4c5cc6cc[nH]c6nc5O[C@H]5COCC[C@@H]54)c3)CC2)C1 [Example 214, 4-(2-((R)-4-((S)-6,8-difluorochroman-4-yl)-2-(2-isopropoxyphenyl)piperazin-1-yl)-7-azaspiro[3.5]nonan-7-yl)-N-(((R)-5-nitro-3-(tetrahydro-2H-pyran-4-yl)-3,4-dihydro-2H-benzo[b][1,4]oxazin-7-yl)sulfonyl)-2-((5aS,9aR)-6,7,9,9a-tetrahydro-1H-pyrano[3,4-b]pyrrolo[3′,2′:5,6]pyrido[3,2-e][1,4]oxazin-5(5aH)-yl)benzamide]	–
48	CC(C)Oc1ccccc1[C@@H]1CN([C@@H]2CCOc3c(F)cc(F)cc32)CCN1C1CC2(CCN(c3ccc(C(=O)NS(=O)(=O)c4cc5c(c([N+](=O)[O-])c4)N[C@H](C4CCOCC4)CO5)c(N4c5cc6cc[nH]c6nc5O[C@H]5COCC[C@@H]54)c3)CC2)C1 [Example 215, 4-(2-((R)-4-((R)-6,8-difluorochroman-4-yl)-2-(2-isopropoxyphenyl)piperazin-1-yl)-7-azaspiro[3.5]nonan-7-yl)-N-(((R)-5-nitro-3-(tetrahydro-2H-pyran-4-yl)-3,4-dihydro-2H-benzo[b][1,4]oxazin-7-yl)sulfonyl)-2-((5aS,9aR)-6,7,9,9a-tetrahydro-1H-pyrano[3,4-b]pyrrolo[3′,2′:5,6]pyrido[3,2-e][1,4]oxazin-5(5aH)-yl)benzamide]	–
